Target: T1, hGIP-R (Homo sapiens, UniProt P48546)
T1 construct: expressed in transfected cells; host or cells: HEK-293 clonal cell lines
T1 sequence (P48546 22-466): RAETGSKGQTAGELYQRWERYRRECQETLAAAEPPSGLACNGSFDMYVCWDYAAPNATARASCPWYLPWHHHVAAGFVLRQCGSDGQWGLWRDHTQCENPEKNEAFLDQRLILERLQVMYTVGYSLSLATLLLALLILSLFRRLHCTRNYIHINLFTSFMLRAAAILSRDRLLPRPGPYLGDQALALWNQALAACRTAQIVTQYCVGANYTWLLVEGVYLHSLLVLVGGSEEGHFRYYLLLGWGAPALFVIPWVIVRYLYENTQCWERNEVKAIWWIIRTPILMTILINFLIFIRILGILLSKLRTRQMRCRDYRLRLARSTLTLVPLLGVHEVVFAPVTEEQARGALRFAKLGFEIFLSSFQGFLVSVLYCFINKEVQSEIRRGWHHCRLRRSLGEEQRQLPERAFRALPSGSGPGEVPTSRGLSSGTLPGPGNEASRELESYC
Experiment: Functional hGIP-R Assay (cAMP formation, HTRF)
Format: cell-based
Conditions: for Emax: cAMP efficacy, percent of maximal response to GIP(1-42)OH, 37° C., 0.1% bovine casein, arithmetic mean ± SEM; for EC50: cAMP potency, HEK-293 cells expressing hGIP-R, incubated at 37° C. in the presence of 0.1% bovine casein, geometric mean, read-out: Human GIP-R EC50, nM (SEM, n)
How it was run: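 HEK-293 cells expressing hGIP-R were given a 20-point compound series in DMEM with 0.1% casein, 250 μM IBMX, 1% DMSO, 30 min at 37 °C. cAMP was read by HTRF against a standard curve, expressed as % of human GIP (1-42) OH maximum; EC50 and Emax came from four-parameter fits.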

For `CN(C(=O)[C@H]1C[C@@H]1c1ccc(-c2cnc3nn(C)cc3c2)cc1)[C@H](Cc1cnn(C)c1)C(=O)NC(C)(C)Cn1nc(C(F)(F)F)cc1-c1ccc(=O)n(C)c1` [Example 31, (1S,2S)-N-Methyl-N-((R)-1-((2-methyl-1-(5-(1-methyl-6-oxo-1,6-dihydropyridin-3-yl)-3-(trifluoromethyl)-1H-pyrazol-1-yl)propan-2-yl)amino)-3-(1-methyl-1H-pyrazol-4-yl)-1-oxopropan-2-yl)-2-(4-(2-methyl-2H-pyrazolo[3,4-b]pyridin-5-yl)phenyl) cyclopropane-1-carboxamide], the Emax was 117 ± 4.92% and the EC50 was 152 nM.
For `CN(C(=O)[C@H]1C[C@@H]1c1ccc(-c2cnc3nn(C)cc3c2)cc1)[C@H](Cc1cnn(C)c1)C(=O)NC(C)(C)Cn1nc(C(F)(F)F)cc1-c1n[nH]c(=O)s1` [Example 30, (1S,2S)-N-Methyl-N-((R)-1-((2-methyl-1-(5-(5-oxo-4,5-dihydro-1,3,4-thiadiazol-2-yl)-3-(trifluoromethyl)-1H-pyrazol-1-yl)propan-2-yl)amino)-3-(1-methyl-1H-pyrazol-4-yl)-1-oxopropan-2-yl)-2-(4-(2-methyl-2H-pyrazolo[3,4-b]pyridin-5-yl)phenyl) cyclopropane-1-carboxamide], the Emax was 95.2 ± 0.936% and the EC50 was 198 nM.
With `Cn1cc2cc(-c3ccc([C@H]4C[C@@H]4C(=O)N[C@H](Cc4cnc5ncccn45)C(=O)NC(C)(C)Cn4nc(C(F)(F)F)cc4C4CC4)cc3)cnc2n1` [Example 37, (1S,2S)-N-((R)-1-((1-(5-Cyclopropyl-3-(trifluoromethyl)-1H-pyrazol-1-yl)-2-methylpropan-2-yl)amino)-3-(imidazo[1,2-a]pyrimidin-3-yl)-1-oxopropan-2-yl)-2-(4-(2-methyl-2H-pyrazolo[3,4-b]pyridin-5-yl)phenyl) cyclopropane-1-carboxamide] the Emax was 77.4 ± 5.92% and the EC50 was 10.8 nM.
`CC(C)(Cn1cc(C(F)(F)F)cn1)NC(=O)[C@@H](Cc1cnc2ncccn12)NC(=O)[C@H]1C[C@@H]1c1ccc(-c2cnc3nc(C4CC4)cn3c2)cc1` [Example 76, (1S,2S)-2-(4-(2-Cyclopropylimidazo[1,2-a]pyrimidin-6-yl)phenyl)-N-((R)-3-(imidazo[1,2-a]pyrimidin-3-yl)-1-((2-methyl-1-(4-(trifluoromethyl)-1H-pyrazol-1-yl)propan-2-yl)amino)-1-oxopropan-2-yl)cyclopropane-1-carboxamide] was tested, and the Emax was 97.2 ± 7.63% and the EC50 was 16.2 nM.
`Cn1cc(C[C@@H](NC(=O)[C@H]2C[C@@H]2c2ccc(-c3cnc4nn(C)cc4c3)cc2)C(=O)NC(C)(C)Cn2nc(C(F)(F)F)cc2-c2cc[nH]n2)cn1` [Example 42] gave an Emax of 114 ± 10.2% and an EC50 of 52.7 nM.
For `CC(C)(Cc1ccc(F)cc1)NC(=O)[C@@H](Cc1cnc2ncccn12)NC(=O)[C@H]1C[C@@H]1c1ccc(NC(=O)C2CCC(F)(F)CC2)cc1` [Example 49, 4,4-Difluoro-N-(4-((1S,2S)-2-(((R)-1-((1-(4-fluorophenyl)-2-methylpropan-2-yl)amino)-3-(imidazo[1,2-a]pyrimidin-3-yl)-1-oxopropan-2-yl)carbamoyl)cyclopropyl)phenyl)cyclohexane-1-carboxamide], the Emax was 72.6 ± 3.47% and the EC50 was 12.6 nM.
In the case of `[2H]C([2H])([2H])n1cc(C[C@H](C(=O)NC(C)(C)Cn2nc(C(F)(F)F)cc2-c2cnc(C)nc2)N2CCC3(CC3c3ccc(-c4cnc5nn(C)cc5c4)nc3C(F)(F)F)C2=O)cn1` (single isomer, unassigned; isomer 1) [Example 115], the Emax is reported as 87.3 ± 0.526% and the EC50 is reported as 4.65 nM.
`[2H]C([2H])([2H])n1cc(C[C@H](C(=O)NC(C)(C)Cn2nc(C(F)(F)F)cc2-c2cnc(C(C)(C)O)nc2)N2CC[C@@]3(C[C@@H]3c3ccc(-c4cnc5nc(C)cn5c4)cc3Cl)C2=O)cn1` [Example 187, (R)-2-((1S,3R)-1-(2-chloro-4-(2-methylimidazo[1,2-a]pyrimidin-6-yl)phenyl)-4-oxo-5-azaspiro[2.4]heptan-5-yl)-N-(1-(5-(2-(2-hydroxypropan-2-yl)pyrimidin-5-yl)-3-(trifluoromethyl)-1H-pyrazol-1-yl)-2-methylpropan-2-yl)-3-(1-(methyl-d3)-1H-pyrazol-4-yl)propanamide] gave an Emax of 84.6 ± 2.33% and an EC50 of 1.26 nM.
`CN(C(=O)[C@H]1C[C@@H]1c1ccc(-c2cnc3nn(C)cc3c2)cc1)[C@H](Cc1cnn(C)c1)C(=O)NC(C)(C)Cn1nc(C(F)(F)F)cc1-c1cccc(=O)[nH]1` [Example 33, (1S,2S)-N-Methyl-N-((R)-1-((2-methyl-1-(5-(6-oxo-1,6-dihydropyridin-2-yl)-3-(trifluoromethyl)-1H-pyrazol-1-yl)propan-2-yl)amino)-3-(1-methyl-1H-pyrazol-4-yl)-1-oxopropan-2-yl)-2-(4-(2-methyl-2H-pyrazolo[3,4-b]pyridin-5-yl)phenyl) cyclopropane-1-carboxamide] gave an Emax of 108% and an EC50 of 133 nM.
Work on `Cc1nc(-c2cnc3nc(C4CC4)cn3c2)ccc1[C@H]1C[C@@]12CCN([C@H](Cc1cnn(C(F)F)c1)C(=O)NC(C)(C)Cn1nc(C(F)(F)F)cc1-c1ccc(C(C)(C)O)nc1)C2=O` [Example 159, (R)-2-((1R,3R)-1-(6-(2-Cyclopropylimidazo[1,2-a]pyrimidin-6-yl)-2-methylpyridin-3-yl)-4-oxo-5-azaspiro[2.4]heptan-5-yl)-3-(1-(difluoromethyl)-1H-pyrazol-4-yl)-N-(1-(5-(6-(2-hydroxypropan-2-yl)pyridin-3-yl)-3-(trifluoromethyl)-1H-pyrazol-1-yl)-2-methylpropan-2-yl)propanamide] yielded an Emax of 95.3 ± 3.03% and an EC50 of 0.397 nM.
In the case of `[2H]C([2H])([2H])n1cc(C[C@H](C(=O)NC(C)(C)Cn2nc(C(F)(F)F)cc2-c2cnc(C(C)(C)O)nc2)N2CC[C@@]3(C[C@@H]3c3ccc(-c4cnc5nn(C)cc5c4)cc3Cl)C2=O)cn1` [Example 193, (R)-2-((1S,3R)-1-(2-chloro-4-(2-methyl-2H-pyrazolo[3,4-b]pyridin-5-yl)phenyl)-4-oxo-5-azaspiro[2.4]heptan-5-yl)-N-(1-(5-(2-(2-hydroxypropan-2-yl)pyrimidin-5-yl)-3-(trifluoromethyl)-1H-pyrazol-1-yl)-2-methylpropan-2-yl)-3-(1-(methyl-d3)-1H-pyrazol-4-yl)propanamide], the Emax is reported as 85.5 ± 0.117% and the EC50 is reported as 1.33 nM.
`Cc1ncc(-c2cc(C(F)(F)F)nn2CC(C)(C)NC(=O)[C@@H](Cc2cnn(C)c2)NC(=O)[C@H]2C[C@@H]2c2ccc(-c3cnc4nn(C)cc4c3)cc2)[nH]1` [Example 15, (1S,2S)-N-((R)-1-((2-Methyl-1-(5-(2-methyl-1H-imidazol-5-yl)-3-(trifluoromethyl)-1H-pyrazol-1-yl)propan-2-yl)amino)-3-(1-methyl-1H-pyrazol-4-yl)-1-oxopropan-2-yl)-2-(4-(2-methyl-2H-pyrazolo[3,4-b]pyridin-5-yl)phenyl) cyclopropane-1-carboxamide] gave an Emax of 117 ± 6.6% and an EC50 of 24.6 nM.
`Cn1cc2cc(-c3ccc([C@H]4C[C@@]45CCN([C@H](Cc4cnn(C(F)F)c4)C(=O)NC(C)(C)Cn4nc(C(F)(F)F)cc4-c4cc(F)c(CO)cc4F)C5=O)cc3)cnc2n1` [Example 124, (R)-N-(1-(5-(2,5-Difluoro-4-(hydroxymethyl)phenyl)-3-(trifluoromethyl)-1H-pyrazol-1-yl)-2-methylpropan-2-yl)-3-(1-(difluoromethyl)-1H-pyrazol-4-yl)-2-((1R,3R)-1-(4-(2-methyl-2H-pyrazolo[3,4-b]pyridin-5-yl)phenyl)-4-oxo-5-azaspiro[2.4]heptan-5-yl)propanamide] was tested, and the Emax was 56.9 ± 11.2% and the EC50 was 55.6 nM.
`CN(C(=O)[C@H]1C[C@@H]1c1ccc(NC(=O)C2CCC(F)(F)CC2)cc1)[C@H](Cc1cnn(C)c1)C(=O)NC(C)(C)Cn1nc(C(F)(F)F)cc1-c1ccc(=O)n(C)c1` [Example 35, 4,4-Difluoro-N-(4-((1S,2S)-2-(methyl((R)-1-((2-methyl-1-(5-(1-methyl-6-oxo-1,6-dihydropyridin-3-yl)-3-(trifluoromethyl)-1H-pyrazol-1-yl)propan-2-yl)amino)-3-(1-methyl-1H-pyrazol-4-yl)-1-oxopropan-2-yl)carbamoyl)cyclopropyl)phenyl)cyclohexane-1-carboxamide] was tested, and the Emax was 75 ± 4.1% and the EC50 was 135 nM.
`[2H]C([2H])([2H])n1cc(C[C@H](C(=O)NC(C)(C)Cn2nc(C(F)(F)F)cc2-c2ccc(C(C)(C)O)nc2)N2CC[C@@]3(C[C@@H]3c3ccc(-c4cnc5nn(C)cc5c4)cc3Cl)C2=O)cn1` [Example 194, (R)-2-((1S,3R)-1-(2-chloro-4-(2-methyl-2H-pyrazolo[3,4-b]pyridin-5-yl)phenyl)-4-oxo-5-azaspiro[2.4]heptan-5-yl)-N-(1-(5-(6-(2-hydroxypropan-2-yl)pyridin-3-yl)-3-(trifluoromethyl)-1H-pyrazol-1-yl)-2-methylpropan-2-yl)-3-(1-(methyl-d3)-1H-pyrazol-4-yl)propanamide] was tested, and the Emax was 64.1 ± 0.489% and the EC50 was 0.567 nM.
`Cn1cc2cc(-c3ccc(C4CC4C(=O)N[C@H](Cc4cnc5ncccn45)C(=O)NC(C)(C)Cn4cc(C(F)(F)F)cn4)c(F)c3)cnc2n1` (single isomer, unassigned; isomer 2) [Example 71] showed an Emax of 88.4 ± 10.3% and an EC50 of 74.8 nM.
